Measurements from ChEMBL document CHEMBL1148206, “Novel sesquiterpenoid matrix metalloproteinase-3 inhibitors from an acid mine waste extremophile” (J Nat Prod, 2004).
≈ marks a conversion by molar mass, not a printed value.

Experiments:
[1] = target: Stromelysin-1 (Homo sapiens) (UniProt P08254); assay: Inhibition of MMP3
Caspase-1 (Homo sapiens) = target: T1, Caspase-1 (Homo sapiens) (UniProt P29466); assay: Inhibition of caspase 1
T1 sequence (whole entry): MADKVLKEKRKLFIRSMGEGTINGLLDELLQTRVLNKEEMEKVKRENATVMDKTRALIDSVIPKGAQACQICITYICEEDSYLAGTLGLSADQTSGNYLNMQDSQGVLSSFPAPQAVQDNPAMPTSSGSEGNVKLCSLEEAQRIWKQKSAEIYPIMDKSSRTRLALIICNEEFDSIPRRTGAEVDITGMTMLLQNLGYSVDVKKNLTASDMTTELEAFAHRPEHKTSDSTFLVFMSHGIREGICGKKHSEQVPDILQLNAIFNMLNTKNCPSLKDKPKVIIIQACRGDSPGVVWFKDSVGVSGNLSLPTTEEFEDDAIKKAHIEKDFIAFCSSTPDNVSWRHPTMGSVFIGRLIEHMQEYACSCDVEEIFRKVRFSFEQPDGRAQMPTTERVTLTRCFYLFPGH

Chain of Stromelysin-1 (Homo sapiens) (P08254 100-477 limits assumed): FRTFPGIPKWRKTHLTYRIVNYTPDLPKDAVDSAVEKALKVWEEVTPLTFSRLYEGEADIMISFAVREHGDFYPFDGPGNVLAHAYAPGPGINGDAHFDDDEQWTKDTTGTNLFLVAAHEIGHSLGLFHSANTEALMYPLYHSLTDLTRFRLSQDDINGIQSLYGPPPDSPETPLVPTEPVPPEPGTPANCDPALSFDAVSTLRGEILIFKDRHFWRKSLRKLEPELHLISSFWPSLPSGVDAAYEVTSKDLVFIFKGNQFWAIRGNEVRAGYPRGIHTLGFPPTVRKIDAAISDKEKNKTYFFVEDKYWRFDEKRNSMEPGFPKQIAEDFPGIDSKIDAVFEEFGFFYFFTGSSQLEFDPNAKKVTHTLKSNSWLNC

SMILES | MIC50 [1] [µM] | MIC50 (Caspase-1 (Homo sapiens)) [µM]
CC(C)=CCC/C(C)=C1\C[C@@H](O)[C@](C)(O)[C@@H](O)C1=O | 0.3 (≈ 0.0805 µg/mL) | 30 (≈ 8.05 µg/mL)
C=C(CCC=C(C)C)C1=C[C@@H](O)[C@](C)(O)[C@@H](O)C1=O | 0.3 (≈ 0.0799 µg/mL) | 30 (≈ 7.99 µg/mL)
C=C(CCC=C(C)C)[C@H]1C[C@@H](O)[C@](C)(O)[C@@H](O)C1=O | 0.3 (≈ 0.0805 µg/mL) | 30 (≈ 8.05 µg/mL)
